For this assay, the target named is SHP2 (Homo sapiens (Human), UniProt Q06124). The experiment in a line: SHP2 Allosteric Inhibition Assay (DiFMUP substrate, bisphos-IRS1 peptide activation). It counts as biochemical. The following applies: 0.5 μM bisphos-IRS1 peptide, 100 uM DiFMUP, room temperature. As for the experimental part:
At the basal state, SHP2 is auto-inhibited and access of substrates to the catalytic site is blocked by the […] interactions between the SH2 domains and the PTP domain. When bis-tyrosyl-phosphorylated peptides bind to SH2 domain of SHP2, the PTP domain becomes available for substrate recognition and reaction catalysis and SHP2 is allosterically activated. SHP2 catalytic activity can be measured using a fluorogenic artificial substrate DiFMUP.
The phosphatase reactions were carried out at room temperature in 384-well black polystyrene plates (Greiner Bio-One, Cat #784076) using assay buffers containing 60 mM HEPES, pH 7.2, 75 mM NaCl, 75 mM KCl, 1 mM EDTA, 0.05% P-20, and 5 mM DTT.
0.33 nM of […] was co-incubated with of 0.5 μM of bisphos-IRS 1 peptide (sequence: H2N-LN(pY)IDLDLV(dPEG8)LST(pY)ASINFQK-amide) and various concentrations of compounds for 30-60 min at room temperature. Then the reaction was initiated by addition of the surrogate substrate DiFMUP (Invitrogen, Cat #D6567, 100 uM final).
The real-time conversion of DiFMUP to DiFMU (6,8-difluoro-7-hydroxyl-4-methyl-coumarin) was measured every 5 min for 30 min using a microplate reader (CLARIOstar, BMG Labtech) with excitation and emission wavelengths of 340 nm and 450 nm, respectively. Initial reaction rates were determined by linear fitting of the data and the inhibitor dose response curves were analyzed using normalized IC50 regression curve fitting with control based normalization.
Sequence of SHP2 (Q06124 whole entry, the tested form may be a part): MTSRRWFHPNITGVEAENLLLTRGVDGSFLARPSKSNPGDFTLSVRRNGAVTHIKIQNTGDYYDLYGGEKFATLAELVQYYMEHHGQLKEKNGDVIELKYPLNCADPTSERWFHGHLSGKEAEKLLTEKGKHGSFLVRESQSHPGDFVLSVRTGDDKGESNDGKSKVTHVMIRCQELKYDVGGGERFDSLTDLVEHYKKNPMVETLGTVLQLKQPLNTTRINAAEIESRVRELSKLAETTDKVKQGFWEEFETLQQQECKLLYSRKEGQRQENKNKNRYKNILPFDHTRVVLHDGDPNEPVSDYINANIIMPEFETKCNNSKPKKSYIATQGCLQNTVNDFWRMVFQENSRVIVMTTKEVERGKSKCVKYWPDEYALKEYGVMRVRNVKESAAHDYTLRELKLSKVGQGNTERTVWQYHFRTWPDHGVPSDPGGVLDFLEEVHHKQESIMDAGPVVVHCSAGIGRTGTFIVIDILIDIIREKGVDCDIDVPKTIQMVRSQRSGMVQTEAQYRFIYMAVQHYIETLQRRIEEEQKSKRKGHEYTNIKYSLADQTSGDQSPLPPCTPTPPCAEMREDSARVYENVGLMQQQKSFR
For orientation: IC50 means the concentration needed to halve the response being measured. For `C[C@@H]1OCC2(CCN(c3ncc(Sc4ccnc5c4OC[C@@H]4C[C@H](O[C@@H]6CCOC6)CN54)nc3CO)CC2)[C@@H]1N` [Compound 28, (3-((3S,4S)-4-amino-3-methyl-2-oxa-8-azaspiro[4.5]decan-8-yl)-6-(((6aS,8S)-8-(((R)-tetrahydrofuran-3-yl)oxy)-6a,7,8,9-tetrahydro-6H-pyrido[3,2-b]pyrrolo[1,2-d][1,4]oxazin-4-yl)thio)pyrazin-2-yl)methanol], the 50% inhibitory concentration (IC50) was 12 nM. The value for `CO[C@H]1C[C@H]2COc3c(Sc4cnc(N5CCC6(CC5)CO[C@@H](C)[C@H]6N)c(CO)n4)ccnc3N2C1` [Compound 16, (3-((3S,4S)-4-amino-3-methyl-2-oxa-8-azaspiro[4.5]decan-8-yl)-6-(((6aS,8S)-8-methoxy-6a,7,8,9-tetrahydro-6H-pyrido[3,2-b]pyrrolo[1,2-d][1,4]oxazin-4-yl)thio)pyrazin-2-yl)methanol] was 8 nM. The value for `C[C@@H]1OCC2(CCN(c3ncc(Sc4ccnc5c4OC[C@@H]4C[C@H](O)CN54)nc3CO)CC2)[C@@H]1N` [Compound 18, (6aS,8S)-4-((5-((3S,4S)-4-amino-3-methyl-2-oxa-8-azaspiro[4.5]decan-8-yl)-6-(hydroxymethyl)pyrazin-2-yl)thio)-6a,7,8,9-tetrahydro-6H-pyrido[3,2-b]pyrrolo[1,2-d][1,4] oxazin-8-ol] was 6 nM; that for `C[C@@H]1OCC2(CCN(c3ncc(Sc4ccnc5c4OC[C@@H]4C[C@H](F)CN54)nc3CO)CC2)[C@@H]1N` [Compound 14, (3-((3S,4S)-4-amino-3-methyl-2-oxa-8-azaspiro[4.5]decan-8-yl)-6-(((6aS,8S)-8-fluoro-6a,7,8,9-tetrahydro-6H-pyrido[3,2-b]pyrrolo[1,2-d] [1,4]oxazin-4-yl)thio)pyrazin-2-yl)methanol] was 13 nM. The value for `C[C@@H]1OCC2(CCN(c3ncc(Sc4ccnc5c4OC[C@@H]4C[C@@H](F)CN54)nc3CO)CC2)[C@@H]1N` [Compound 15, (3-((3S,4S)-4-amino-3-methyl-2-oxa-8-azaspiro[4.5]decan-8-yl)-6-(((6aS,8R)-8-fluoro-6a,7,8,9-tetrahydro-6H-pyrido[3,2-b]pyrrolo[1,2-d] [1,4]oxazin-4-yl)thio)pyrazin-2-yl)methanol] was 5 nM; that for `C[C@@H]1OCC2(CCN(c3ncc(Sc4ccnc5c4OC[C@@H]4C[C@@H](O)CN54)nc3CO)CC2)[C@@H]1N` [Compound 19, (6aS,8R)-4-((5-((3S,4S)-4-amino-3-methyl-2-oxa-8-azaspiro[4.5]decan-8-yl)-6-(hydroxymethyl)pyrazin-2-yl)thio)-6a,7,8,9-tetrahydro-6H-pyrido[3,2-b]pyrrolo[1,2-d][1,4]oxazin-8-ol] was 8 nM.

The values above are taken from patent US11459340B2, “Tri-substituted heteroaryl derivatives as Src homology-2 phosphatase inhibitors” (Nikang Therapeutics, Inc., priority 2018, dated 2022).
